Assay results taken from patent US5977077A, “Xanthone analogs for the treatment of infectious diseases” (Interlab Corporation, priority 1996, dated 1999).
pIC50: −log10 of the molar value. Converted amounts (≈) assume the structure as drawn. Read-outs that look alike come from different tables or passages of the source.

Columns and labels:
[1] = system: Candida albicans (clinical isolate); experiment: Anti-Candida activity, minimum inhibitory concentration by visual inspection; type: cell-based; conditions: 15-18 hour incubation, 35° C., read-out: MIC against Candida albicans
Protocol: The minimum inhibitory concentration (MIC) of formula X1 compounds against a clinical isolate of Candida albicans was determined using the following method. […] The determination of this concentration is made by visual inspection; there is no visible growth in a tube containing the MIC of the formula X1 compound whereas visible growth is present in tubes containing sub-MIC concentrations of the compound.
Candida albicans was grown to midlog-phase in Luria-Bertani broth (10 grams Bacto-tryptone, 5 grams Bacto-yeast extract and 10 grams NaCl per liter) and then inoculated into sterile test tubes containing LB broth to an initial density of 10^3 /ml. The formula X1 compound to be tested is dissolved in dimethylsulfoxide (DMSO) at a concentration of 10 mM and added to each tube at serial dilutions (1 μM, 10 μM, 25 μM, 50 μM, 100 μM and 0 μM). The tubes are incubated at 35° C. for 15-18 hours and then visually inspected.

Leishmania donovani [2] = experiment: In vitro anti-leishmania activity, radiolabeled thymidine uptake assay; type: cell-based; conditions: for IC50 / pIC50: Leishmania donovani
Protocol: Briefly, promastigotes were cultivated at 25° C. in Schneiders medium supplemented with 20% inactivated fetal calf serum and 100 μg/mL of gentamicin. Cells were maintained in log phase by seeding at 1×10^6 /mL with subculturing when cultured densities approached 4×10^7 /mL before reaching their maximal density. For the assay, early log phase promastigotes were counted on a hemacytometer and resuspended at a concentration of 1-2×10^6 cell/mL in assay media (Schneiders medium plus 10% fetal bovine serum). Ten-fold serial dilutions of each test compound were prepared as described above and added to 180 μL of the parasite suspension. After incubation for 24 hours at 25° C., methyl-^3 H-thymidine was added to each sample for a final concentration of 1-2 μCi per well. Each sample was then incubated for an additional 18 hours prior to harvesting. After this incubation time, each sample was aspirated onto a filter mat, washed thoroughly with deionized water, dried and then counted in a scintillation counter with scintillation cocktail.

[3] = system: Plasmodium falciparum (D6 strain); experiment: In vitro anti-malarial activity, [3H]-ethanolamine incorporation; type: cell-based; conditions: for pIC50 / IC50: Plasmodium falciparum; for pIC50: read-out: anti-malarial activity IC50; for IC50: read-out: IC50, μM vs. Plasmodium; for anti-malarial potency relative to 2,3,4,5,6-pentahydroxyxanthone: in words
Protocol: The D6 strain of P. falciparum was cultured in Group A^+ human erythrocytes and suspended at a 3.3% hematocrit in RPMI-1640 (Gibco, Grand Island, N.Y.) (containing 4 g/L glucose, 50 mg/L gentamicin and 10% group A^+ human serum), buffered with 25 mM HEPES and 25 mM NaHCO3 (Larrey, 1989). Cultures were maintained at 37° C. in a gas mixture of 5% oxygen, 5% CO2, and 90% nitrogen.
The in vitro anti-malarial activities of 2,3,4,5,6-pentahydroxyxanthone and other formula X1 compounds were measured by the [^3 H]-ethanolamine incorporation method as described in Elabbadi et al., 1992, with minor modifications. [^3 H]-ethanolamine was obtained from American Radiolabeled Chemicals, Inc., St. Louis, Mo. Experiments were conducted in 96 well plates in a total volume of 200 μl at a final red blood cell concentration of 3.3% (v/v). An initial parasitemia of 0.2 to 0.5% was attained by addition of normal uninfected red cells. Radiolabeled ethanolamine was added after 48 hours of incubation and the experiment was terminated after 72 hours by collecting the cells onto glass fiber filters with an automated multiwell harvester.
Stock solutions of the various formula X1 compounds were dissolved in DMSO at a concentration of 1 mM and diluted in complete medium (including 10% human serum) to provide 10× stock concentrations in the range of 1 to 10,000 nM. The concentration of the formula X1 compound giving 50% inhibition of label incorporation (IC50) relative to control (i.e., drug-free) conditions was calculated from the dose-response curve.

Leishmania donovani [4] = conditions: reported by Grogl et al. (1992); cited from earlier work
[5] = Table 2, read-out: IC50, mg/ml vs. Leishmania
[6] = promastigotes, read-out: anti-leishmanial activity IC50

SMILES | IC50 (Leishmania donovani [2]; [5]) | pIC50 ([3]; D6 strain, 72 h) | IC50 ([3]; Table 1, D6 strain, 72 h) | also measured
O=c1c2ccc(O)c(O)c2oc2c(O)c(O)c(O)cc12 [2,3,4,5,6-pentahydroxyxanthone] | 0.0015 mg/mL | 6.30 to 6.40 | 0.4 to 0.5 µM | MIC [1]: ~37.5 µM (≈ 10.4 µg/mL); pIC50 (Leishmania donovani [2]; [6]): ~5.30; anti-leishmanial activity IC50 (Leishmania donovani [2]; promastigotes, value in mg/ml): ~1 mg/L
CCN(CC)CCCC(C)Nc1ccnc2cc(Cl)ccc12 (stereo not drawn) [Chloroquine, reference compound] |  |  |  | pIC50 ([3]; D6, 72 h): ~7.70
O=c1c2ccccc2oc2cc(O)cc(O)c12 [1,3-dihydroxyxanthone, 1,3-dihydroxyxanthone] |  |  | > 100 µM | 
O=c1c2cc(O)c(O)cc2oc2cc(O)c([C@@H]3O[C@H](CO)[C@@H](O)[C@H](O)[C@H]3O)c(O)c12 [Mangiferin, reference compound] | > 0.05 mg/mL |  | 50 µM | 
COc1c(O)cc2oc3cc(O)c(CC=C(C)C)c(O)c3c(=O)c2c1CC=C(C)C [Mangostin, reference compound] | 0.00041 mg/mL |  |  | IC50 (Leishmania donovani [2]; read-out: anti-leishmanial activity IC50): 0.00041 mg/mL; pIC50 (Leishmania donovani [2]; [6]): 6.00; IC50 ([3]; D6, 72 h): 5 µM
CC(=O)Oc1cc2c(=O)c3ccc(OC(C)=O)c(OC(C)=O)c3oc2c(OC(C)=O)c1OC(C)=O [2,3,4,5,6-pentaacetoxyxanthone] |  | ~7.12 | 0.075 µM | anti-malarial potency relative to 2,3,4,5,6-pentahydroxyxanthone [3]: several times more potent
O=c1c2cc(O)c(O)c(O)c2oc2c(O)c(O)c(O)cc12 [2,3,4,5,6,7-hexahydroxyxanthone] | 0.0015 mg/mL | 7.12 | 0.075 µM | MIC [1]: ~37.5 µM (≈ 11 µg/mL); pIC50 (Leishmania donovani [2]; [6]): ~5.30
O=c1c2cc(O)c(O)c(O)c2oc2cc(O)c(O)c(O)c12 [1,2,3,5,6,7-Hexahydroxyxanthone, 1,2,3,5,6,7-Hexahydroxy-xanthone] |  |  | 25 to 50 µM | 
O=c1c2ccccc2oc2ccccc12 [Xanthone] |  |  |  | IC50 ([3]; D6, 72 h): 10 µM
O.O.O.O.O.O.O.O.O.O=C([O-])[C@@H]1[O][Sb](=[O])([O][Sb]2(=[O])[O][C@H]([C@H](O)CO)[C@H](O)[C@H](C(=O)[O-])[O]2)[O][C@H]([C@H](O)CO)[C@@H]1O.[Na+].[Na+].[Na+] (stereo partly drawn) [Pentostam] |  |  |  | IC50 values of commonly used anti-leishmanial drugs (Leishmania donovani [4]): 100 to 2000 mg/L
O=c1c2ccc(O)c(O)c2oc2c(O)c(O)ccc12 [3,4,5,6-Tetrahdroxyxanthone, 3,4,5,6-Tetrahdroxy-xanthone] |  |  | 10 µM | 
COc1cc2c(=O)c3ccc(OC)c(OC)c3oc2c(OC)c1OC [2,3,4,5,6-pentamethoxyxanthone] |  | < 4.00 | > 100 µM | anti-malarial potency relative to 2,3,4,5,6-pentahydroxyxanthone [3]: essentially eliminated the anti-malarial activity
O=c1c2cc(O)c(O)c(O)c2oc2cc(O)cc(O)c12 [1,3,5,6,7-pentahydroxyxanthone, 1,3,5,6,7-pentahydroxy-xanthone] |  |  | 1 µM | 
